Results from patent publication US20170172945A1, “METHODS OF TREATING BREAST CANCER” (Mitchell Woods Pharmaceuticals, Inc., priority 2014, published 2017).

Legend:
Assay type in all cases: cell-based, Human
[1] = system: MDA-MB-231 cells; assay: [3H]-thymidine incorporation assay in MDA-MB-231 cells; settings: serum-starved, 24 hours
Method: (§1) Cells were seeded in 12-well plates at approximately 50,000 cells/well and incubated at 37° C. After 24 hours, the wells were rinsed with PBS and replaced with serum-free medium containing the appropriate concentration of the test compounds. After another 24-hour incubation at 37° C., 1 μCi of [^3H]-thymidine was added to each well and incubated at 37° C. for 16 hours. […] The lysate was then mixed with 3 mL of liquid scintillation cocktail (Beckman Coulter, Inc., Brea, Calif.), and radioactivity was measured by liquid scintillation counting using Beckman Coulter LS6000IC Scintillation Counter. Data are shown as CPM incorporated compared to the control cells.
(§2) CF-7 cells and MDA-MB-231 cells were seeded out on E-Plates and allowed to settle. Cells were stimulated with MNF. Cellular proliferation and adherence was measured every 15 minutes using xCELLigence RTCA station. The serum-starved cells were incubated with various amounts of (R,R′)-MNF concentrations for 24 hours and the levels of [3H]thymidine incorporation were measured.

[2] = system: MCF-7 cells; assay: [3H]-thymidine incorporation assay in MCF-7 cells; settings: serum-starved, 24 hours
Method: as §1, §2

[3] = system: ERK; assay: basal phosphorylation levels of ERK in MCF-7 cells; settings: serum starved for 3 hours, compound for 15 minutes
Method: (§3) Levels of ERK1/2 and its phosphorylated forms were determined using PathScan ELISA kits according to manufacturer's protocol (Perkin Elmer Alphascreen Surefire ERK1/2 assay kit, cat no. TGRES500).
(§4) (R,R′)-MNF decreased basal phosphorylation levels of ERK. MCF-7 and MDA-MB-231 cells were serum starved for 3 hours and subjected to compound of interest or vehicle for 15 minutes. The levels of phosphorylated ERK were determined in MNF-treated MCF-7 and MDA-MB-231 cells.

[4] = system: ERK; assay: basal phosphorylation levels of ERK in MDA-MB-231 cells; settings: serum starved for 3 hours, compound for 15 minutes
Method: as §3, §4

[5] = system: Multidrug resistance protein (Mdr); assay: expression of Multidrug resistance protein (Mdr) in MCF-7 cells
Source text: As shown therein, MNF reduces the expression of Multidrug resistance protein (Mdr) in MCF-7 cells.

[6] = system: MCF-7 cells; assay: proliferation of MCF-7 cells (xCELLigence RTCA)
Method: as §2, with “measured. MNF inhibited the incorporation of radiolabelled thymidine in both CF-7 cells and MDA-MB-231 cells.” for “measured.”

[7] = system: MCF-7 cells; assay: cell cycle analysis in MCF-7 cells
Method: (§5) Cell cycle distributions were performed by flow cytometry on propidium iodide-stained nuclei prepared by the NEVI technique. DNA histograms of at least 10,000 cells acquired on a Becton-Dickinson FACScanto II (BD Biosciences, San Jose, Calif.) were deconvoluted using the Multicycle program (Phoenix Flow Systems) for estimates of the percentage of cells in the G0/1, S, and G2+M phases of the cell cycle. Debris and doublets were removed from the analysis by software algorithms.

[8] = system: Cyclin B1; assay: expression of Cyclin B1 in MCF-7 cells
Method: (§6) Cells were lysed with RIPA buffer containing EGTA and EDTA (Boston BioProducts, Ashland, Mass.). The lysis buffer was mixed with a protease inhibitor cocktail (Sigma-Aldrich). Protein concentrations were measured using the bicinchoninic acid reagent (Thermo-Pierce Biotechnology, Inc., Rockford, Ill.). Proteins (20 μg/well) were separated on 4-12% precast gels (Invitrogen, Carlsbad, Calif.) using SDS-polyacrylamide gel electrophoresis under reducing conditions and were electrophoretically transferred onto polyvinylidene fluoride membrane (Invitrogen). Western blots were performed according to standard methods. The visualization of immunoreactive bands was performed using the ECL Plus Western Blotting Detection System (GE Healthcare, NJ) and their quantification was done by volume densitometry using Image J software and normalization to β-actin. The primary antibody for β2-APv was obtained from Enzo Life Sciences, Inc. (Cat. # AD 1-905-742-100, Farmingdale, N.Y.); rabbit anti-phospho-Akt (Ser-473), phospho-ERK1/2, total Akt and total ERK2 were from Cell Signaling Technology (Beverly, Mass.), and anti-P-actin was from Abeam (Cambridge, Mass.). The antibodies were used at a dilution recommended by the manufacturer.
(§7) The effect of MNF on expression of the cell cycle regulatory proteins Cyclin D1 and Cyclin B1 in MCF-7 cells and MDA-MB-231 cells was evaluated. […]

[9] = system: Cyclin D1; assay: expression of Cyclin D1 in MCF-7 cells
Method: as §6, §7

[10] = system: MDA-MB-231 cells; assay: cell cycle analysis in MDA-MB-231 cells
Method: as §5

[11] = system: Cyclin D1; assay: expression of Cyclin D1 in MDA-MB-231 cells
Method: as §6, §7

[12] = system: MDA-MB-231 cells; assay: proliferation of MDA-MB-231 cells (xCELLigence RTCA)
Method: as §2, with “measured. MNF inhibited the incorporation of radiolabelled thymidine in both CF-7 cells and MDA-MB-231 cells.” for “measured.”

| Compound | blocking of the inhibitory effect of MNF on [3H]thymidine incorporation ([1]; with MNF) | blocking of the inhibitory effect of MNF on [3H]thymidine incorporation ([2]; with MNF) | basal phosphorylation levels of ERK [3] | levels of [3H]thymidine incorporation [1] | basal phosphorylation levels of ERK [4] | expression of Multidrug resistance protein (Mdr) [5] | growth of cancer cells [6] | proliferation [6] | arrest of the cell cycle [7] | expression of Cyclin B1 [8] | levels of [3H]thymidine incorporation [2] | expression of Cyclin D1 [9] | arrest of the cell cycle [10] | expression of Cyclin D1 [11] | growth of cancer cells ([12]; MDA-MB-231 cells) | proliferation ([12]; MDA-MB-231 cells) | sensitivity to MNF compared with MCF-7 cancer cells ([12]; MDA-MB-231 cells vs MCF-7 cells) |
| --- | --- | --- | --- | --- | --- | --- | --- | --- | --- | --- | --- | --- | --- | --- | --- | --- | --- |
| Cc1ccc(OCC(O)C(C)NC(C)C)c2c1CCC2 (centres unmarked) [ICI 118,551, 3-(isopropylamino)-1-[(7-methyl-4-indanyl)oxy]butan-2-ol, reference compound] | not | not |  |  |  |  |  |  |  |  |  |  |  |  |  |  |  |
| COc1ccc(C[C@@H](C)NC[C@H](O)c2cc(O)cc(O)c2)c2ccccc12 [MNF, (R,R′)-4′-methoxy-1-naphthylfenoterol] |  |  | decreased | inhibited | decreased | reduces | inhibit | inhibit | G2/M phase arrested cell population was increased | reduced | inhibited | unchanged | arrested at G1/S phase | reduced | inhibit | inhibit | significantly more sensitive |
